We go through two compounds from patent publication US10426740B1, “Compositions and methods to inhibit stem cell and progenitor cell binding to lymphoid tissue and for regenerating germinal centers in lymphatic tissues” (AVM BIOTECHNOLOGY, LLC, priority 2010, dated 2019).

The subject of experiment [1] is tumor necrosis factor-alpha. To be noted: cited from earlier work.
Experiment [2] deals with equine bone marrow MSC. The experiment in a line: Osteocyte, chondrocyte and adipocyte differentiation of MSC from treated horses (Example 21). Particulars: for osteocyte differentiation: not different. Format: in vivo, horse. Here is the method:
1 g of Alizarin Red S (Sigma-Aldrich) was mixed with 50 ml of DI water to make a 50 ml solution of Alizarin Red S 2%. The pH of the Alizarin Red S solution was adjusted to 4.1-4.3 using ammonium hydroxide. The solution was filtered through a vacuum filtration system, then transferred to a 50 ml conical tube and stored protected from light.
250 mg of Oil Red O (Sigma-Aldrich) was added to 50 mL of isopropanol to make a 50 ml solution of Oil Red O 0.5%. The solution was mixed well, then filtered through a vacuum filtration system. After that, it was stored as a stock solution in a 50 ml conical tube wrapped in aluminum foil protected from light. On the staining day, 3 parts of stock Oil Red O 0.5% were mixed with 2 parts of DI water to make a working stock solution. This solution was incubated for 10 min and the forming precipitate removed by filtration through a sterile filter.
50 mg of Safranin O (Sigma-Aldrich) was added to 50 ml of DI water to make a 50 ml solution of Safranin O 0.1%. The solution was mixed well, then filtered through a vacuum filtration system. After that, it was stored in 50 ml conical tube protected from light.
After BM withdrawal from each vial for the Giemsa staining assay, another 100 μl of BM was withdrawn, and plated in CFU-F assay media (10 ml medium per T25 flasks; 2× total) 36 hours after it was extracted from the horse. MSCs were passaged in MesenCult™ MSC Basal Medium (Human; growth medium; including stimulatory supplement) until passage number 3 (P3). After trypsinization of the cells, they were mixed with an equivalent volume of growth medium, centrifuged (230 g for 3 min at RT) and resuspended in 1 ml of growth medium. Cells were counted and seeded using 30,000 cells/well of a 12 well plate (30,000 cells/well seeded in 3 wells; T1, T2 and one negative control). The seeded cells (P4) of T1 and T2 were left expanding in growth medium for two days, followed by a medium change into osteocyte differentiation medium (Stem Pro Osteocyte Differentiation Basal Medium and supplement; Gibco). The latter was changed every 2-3 days for all the plates. Morphological changes were documented by taking images using the EVOS XL Core microscope. Day 1 corresponds to MSCs being in differentiation medium for 24 h, Day 2 for 48 h etc. Two time points (T1: Day 4 and T2: Day 7 with one 12-well plate for both time points) were chosen for the osteocyte staining (Alizarin Red S) to assess the onset as well as the differentiation extent of MSCs from AVM0703 vs Placebo treated horses. […]
MSCs were passaged in MesenCult™ MSC Basal Medium (Human; including stimulatory supplement) until passage number 4 (P4). […] Cells were counted and seeded using a density of 80,000 cells/well of a 12 well plate (80,000 cells/well seeded in 3 wells; T1, T2 and one negative control). […]

The subject of another experiment is blood lymphocytes. The experiment in a line: Blood lymphocytes (CBC) after oral dexamethasone (Example 20). Format: in vivo, mouse. Particulars: placebo about 1700.
The subject of experiment [3] is osteoarthritis (OA), tendon injury, or osteochondral defect. Kind of experiment: Equine outcome after stem cell (MSC) injection with dexamethasone pretreatment (Example 16). Particulars: 5.7 mg/kg HED, one horse. Format: in vivo. On the procedure: Approximately 48 hours later male or female horses with osteoarthritis (OA), tendon injury, or osteochondral defect were intra-articularly (IA) or intra-tendon injected with either allogeneic adipose-derived mesenchymal stem cells (MSCs) or with autologous, bone marrow derived culture expanded MSCs.

For experiment [4], the system named is spleen. The experiment in a line: Splenic sequestration and circulating numbers of injected CTG-labeled stem cells, flow cytometry (Example 14). It counts as in vivo, mouse. To be noted: 1 mg IP days -7, -4, -1 (HED 7.4 mg/kg). From the text: Control mice (n=4) were IP injected with the same volume per body weight of 70% ethanol diluted 1:10 in PBS. Sixty minutes later the mice were sacrificed by exsanguination and spleens and blood collected for flow cytometry. The spleens were dissociated to single cell suspensions prior to flow cytometry. CTG-labeled bone marrow mononuclear stem cells were detected in the spleen and lysed whole blood using flow cytometry.
(In general: In flow cytometry, cells or beads pass a laser one at a time.)

Experiment [5] has as its system spleen. Kind of experiment: In vivo sequestration of injected CTG-labeled MNC in the spleen, flow cytometry (Example 9). The arrangement: species or system mouse. Particulars: cells injected day 7, one hour.
The test system of a further experiment is germinal center. Kind of experiment: Germinal center intensity by FITC-PNA in spleen (Example 18). Particulars: about 48 hours, controls approximately 40. Format: in vivo, mouse. Here is the method:
The mice were sacrificed by exsanguination and then residual blood cells flushed out with 5 U heparin/ml PBS via retrograde flush into the thoracic jugular vein. The spleens were removed, weighed wet, and then fixed in 10% formalin. Subsequently the spleens were sectioned via proprietary methods and then incubated with FITC-PNA at 4 deg.C for 24 hours, washed, placed on slides and immunofluorescent images were captured. Metamorph software was used to quantify the immunofluorescent signal. Average germinal center intensity measured by FITC-PNA average intensity was approximately 40 in controls, reduced to about 33 at the 6 mg/kg HED, reduced to about 22.5 at the 9 mg/kg HED, and further reduced to about 15 at the 11 mg/kg HED.

Experiment [6] deals with active germinal centers in the spleen. Kind of experiment: Dexamethasone pretreatment: ex vivo stem cell binding to splenic sections, spleen weight, MNC and germinal centers (Example 8).
The subject of experiment [7] is equine bone marrow MSC. Kind of experiment: Equine bone marrow CFU-F assay after IV dexamethasone (Example 21). It counts as in vivo, horse. Particulars: Day 14 after plating; 3.18 mg/kg (HED 6 mg/kg) IV; placebo about 46.6.
The mark [8] stands for this setting: single 1 mg, 7 days prior to harvest.

Some results are limits rather than exact numbers.

`Nc1cccc2c1CN(C1CCC(=O)NC1=O)C2=O` (stereo not drawn) [Lenalidomide]: in experiment [1], the “potency in inhibiting tumor necrosis factor-alpha relative to thalidomide” value is given as 50,000 times.
Regarding `C[C@@H]1C[C@H]2[C@@H]3CCC4=CC(=O)C=C[C@]4(C)[C@@]3(F)[C@@H](O)C[C@]2(C)[C@@]1(O)C(=O)CO` [dexamethasone], the osteocyte differentiation in the experiment on equine bone marrow MSC [2] (day 4 of assay, placebo 1.75) was 3.19; in the experiment with equine bone marrow MSC [2] (day 7 of assay, placebo 4.29), 4.58. Further, the chondrocyte culture area with equine bone marrow MSC [2] (day 6 of assay, placebo 23.4%) was found to be 40.1%. The adipocyte numbers in the experiment with equine bone marrow MSC [2] (day 24 of assay, placebo 4.8, no difference) is 7.4 adipocytes. Moreover, the lymphocytes result in the experiment with blood lymphocytes (single acute HED 12 mg/kg oral on day -2) is on record as “about 170 per microliter”; in the experiment with blood lymphocytes (two repeat doses HED 6 mg/kg oral, day -2 and day -1), “about 1000 per microliter”. In addition, the “return to work, tendon injury (DDFT grade 3)” value in experiment [3] is at most 6 months. Further, the “circulating numbers of CTG-stem cells” value with spleen [4] (controls 4,500) was 49,000 CTG-stem cells. In addition, the “splenic sequestration 60 minutes after injection” value in the experiment on spleen [4] (controls 665,000) is reported as 285,000 CTG-stem cells. Besides, the “reduction of MNC CTG total cell number accumulation in the spleen” value in the experiment with spleen [5] (3 mgs total (1 mg ip day 0, 2 and 5)) was “approximately 70%”; in the experiment with spleen [5] (total 2 mgs (1 mg ip day 0 and day 4)), 33-43%. Moreover, the figures for the “average germinal center intensity measured by FITC-PNA average intensity” value with germinal center (6 mg/kg HED IP), in the experiment with germinal center (9 mg/kg HED IP) and in the experiment on germinal center (11 mg/kg HED IP) were “about 33”, “about 22.5” and “about 15”, respectively. Further, in [6] (day 7 after single 1 mg IP), the “reduction of mononuclear stem cell binding to spleen sections” value was 30-40%. In addition, in [6] (setting [8]), the “increase of percentage of stem cells within MNC fractions from whole blood or bone marrow compared to control (average)” value is reported as 32%. In experiment [6] (setting [8]), the “reduction of PNA labeled germinal centers” value is “up to 24%”. Also, the “reduction of average circulating MNC number” value in experiment [6] (setting [8]) stood at 34%. The “reduction of spleen weights (average)” value in experiment [6] (setting [8]) is 22%. Also, the “MSC number (CFU-F)” value in the experiment with equine bone marrow MSC [7] was “about 78.8 CFU-F”.
